The subject of one assay is T. cruzi-infected H9C2 cardiomyocytes, high-content imaging. The experiment in a line: intracellular T. cruzi amastigote inhibition, imaging, H9C2 host cardiomyocytes, host toxicity (AID 1159565).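 Also: infected cells incubated 72 h after plating.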 As to conditions: measured here: H9C2 host cell toxicity.
Turning to `Cn1nccc1NC(=O)Cn1ccc(-c2ccncc2)n1`, the IC50 (commonly the concentration at which inhibition is half-maximal) is > 50000 nM. The compound `O=C(c1cc2cc(Cl)ccc2[nH]1)N1CCCCC1c1cccnc1` (stereo not drawn) displayed a 50% inhibitory concentration (IC50) of 32000 nM. That is a double-digit micromolar value. Same read-out and setting: the figure for `CC(C(=O)Nc1ccccc1F)N(C)CC(=O)Nc1cccc2ccccc12` (stereo not drawn) is > 50000 nM.

Consider `O=S(=O)(NCC(c1cccnc1)N1CCN(c2ccccc2F)CC1)c1ccc(F)cc1` (stereo not drawn), for which the IC50 was > 50000 nM. Turning to `O=C(Nc1nccs1)c1ccccc1Cn1cc([N+](=O)[O-])cn1`, the IC50 was > 50000 nM. The same measure, in the same setting: in the case of `Nc1nccc(-c2csc(Nc3ccc(Cl)cc3)n2)n1` it was 2000 nM. On to `O=C(Nc1nc(-c2ccccn2)cs1)N1C[C@H]2C[C@@]2(c2ccccc2)C1`, for which the IC50 worked out at 790 nM. Same read-out and setting: in the case of `COc1ncc(-c2ccc3nccc(-c4ccncc4)c3c2)cc1NS(=O)(=O)C1CC1` it was 790 nM; in that of `Cc1cc(NC(=O)CC2CCCCC2)n(-c2nc3c(c(=O)[nH]2)CCC3)n1`, 4000 nM; in that of `Cc1nc2c(-c3nc(-c4ccc(N)cc4)n[nH]3)cccn2c1C`, 10000 nM. On to `Nc1ncnc2c1ncn2[C@@H]1O[C@H](CO)C[C@H]1O`, for which the IC50 is 5000 nM. For the compound `NS(=O)(=O)c1ccc(Nc2ncc3cccc(OC4CCNCC4)c3n2)cc1`, the IC50 is 630 nM. On the same count and under the same terms, in the case of `Cn1c(CC(=O)NNC(=O)c2ccc3ccccc3n2)nc2ccccc21` it was > 50000 nM. For the compound `O=C(NCc1nnc2n1CCCCC2)c1ccc(-c2ccc(F)cc2)o1`, the IC50 is > 50000 nM. Regarding `CC(C)(C)CC(=O)NCc1noc(COc2ccccc2)n1`, the concentration for half-maximal inhibition (IC50) is > 50000 nM. `O=C1NCCn2ccc(Nc3nc(NC4CCC(O)CC4)ncc3Cl)c21` (stereo not drawn): the IC50 was found to be 400 nM. Still for that read-out and setting: the figure for `O=c1cc(NCCCNCc2c[nH]c3ccc(Br)cc23)[nH]c2ccccc12` is > 50000 nM; for `COc1ccc(C2CC(c3ccccc3Cl)=NN2C(=O)CNC(=O)C2CCCC2)cc1` (stereo not drawn) it is > 50000 nM; for `CNc1nc(C)nc(N2CCc3cc(C(=O)NCc4ccc(-c5ccn[nH]5)cc4Cl)ccc32)n1` it is 20000 nM. The same measure, in the same setting: in the case of `O=C(Cn1cnc([N+](=O)[O-])n1)Nc1ccc(Cl)cc1C(=O)c1ccccc1` it was > 50000 nM; in that of `CCS(=O)(=O)c1cccc(C(=O)Nc2nc(-c3ccccn3)cs2)c1`, 4000 nM; in that of `O=S(=O)(c1ccccc1C(F)(F)F)N1CCN(Cc2ccc(-n3ccnc3)cc2)CC1`, > 50000 nM.

In the case of `COc1ccc(C(=O)N2CCC(Nc3cccnc3)C2)c(OC)n1` (stereo not drawn), the IC50 is > 50000 nM. Still for that read-out and setting: in the case of `CN(C)c1ccc(-c2cc3nccnc3c(OC[C@H]3CCCNC3)n2)cn1` it was 20000 nM; in that of `CC1CCCN(S(=O)(=O)c2ccc(C(=O)Nc3nc(-c4ccccn4)cs3)cc2)C1` (stereo not drawn), 3200 nM; in that of `CC(C)S(=O)(=O)c1ccc(-c2cnc(N)c3cc(-c4ccnc(N)n4)ccc23)cc1`, 500 nM. On the same count and under the same terms, in the case of `COCc1cc(Nc2ccc(Cl)cc2)nc(-c2ccccn2)n1` it was 1300 nM.

For the compound `Cc1ccc(Nc2nc(N)nc(CNC(c3nc4ccccc4[nH]3)C(C)C)n2)cc1` (stereo not drawn), the IC50 was > 50000 nM.

Staying with this assay, now noted: measured here: amastigotes per cell.
The compound `NC(=O)c1ccccc1Nc1nc(NC2CCCCC2)nc2[nH]ccc12` came in with an IC50 of 1000 nM. This counts as single-digit micromolar.

On to `CCc1cccc(-n2nc(OCC(=O)NC3CCCC3)c3cccnc32)c1`, for which the IC50 is > 50000 nM. For `CNC(=O)C1Cc2ccccc2N1C(=O)Cc1ccc(F)cc1` (stereo not drawn), the IC50 is > 50000 nM. On the same count and under the same terms, in the case of `Nc1cc(-c2ccc3ncnc(N4CCOCC4)c3c2)cnc1N` it was 1600 nM; in that of `COc1cc(-c2nc(N3CCOCC3)sc2-c2ccnc(NC3CCOCC3)n2)ccc1Cl`, 100 nM. For the compound `O=c1[nH]c(NCCCNCc2cc(Br)cc(Br)c2)nc2ccsc12`, the IC50 came to 400 nM. As for `CN(C)CCOc1ccc(N2CCN(S(=O)(=O)c3ccc(Cl)cc3)CC2)cc1`, the half-inhibitory concentration (IC50) is 500 nM. On the same count and under the same terms, the figure for `O=C(CC1(O)C(=O)N(Cc2cccs2)c2ccc(Br)cc21)c1cccnc1` (stereo not drawn) is 25000 nM; for `CN(C(=O)Nc1ccc2c(c1)CCN(C1CCC1)CC2)c1ccc(C#N)cc1` it is 2000 nM. On the same count and under the same terms, the figure for `COc1ccc(C2=NCC(CSc3nnc(-c4ccc5c(c4)OCO5)o3)S2)cc1` (stereo not drawn) is 320 nM. In turn, `O=[N+]([O-])c1cccc(Nc2cncc(-c3ccccc3CO)c2)c1` displayed a 50% inhibitory concentration (IC50) of 250 nM. On the same count and under the same terms, in the case of `Cc1nc2nc(C)c(Cc3ccc(C(C)C)cc3)c(=O)n2[nH]1` it was 250 nM. Consider `COc1cnc2ccc(=O)n(CCN3CCC(NC(=O)c4ccc(Cl)cc4)CC3)c2c1`, for which the 50% inhibitory concentration (IC50) is 79 nM. Still for that read-out and setting: the figure for `Cc1cc(C)cc(NS(=O)(=O)c2cc(-c3cc(C)[nH]n3)ccc2C)c1` is 1300 nM. Still for that read-out and setting: the figure for `Cc1cc2cc(CNc3ccc4c(c3)OCO4)c(=O)n(CCO)c2cc1C` is 200 nM; for `COc1ccc(CN2C(=O)C(O)(CC(=O)c3ccncc3)c3cc(Br)ccc32)cc1OC` (stereo not drawn) it is 13000 nM.

For `Cc1cc(NC(=O)C2CC2)ccc1OC1CCN(Cc2ccco2)CC1`, the IC50 came to 20000 nM.

In turn, `COc1ccc2ncc(F)c(NC(=O)C3(O)CCC(NCc4ccc5c(c4)OCCO5)CC3)c2n1` (stereo not drawn) gave an IC50 of 160 nM.

Consider `Cn1cncc1CN1CCC2(CC1)COC(Cc1ccccc1)C2` (stereo not drawn), for which the IC50 was found to be 320 nM. On the same count and under the same terms, in the case of `O=C(CN(Cc1ccccn1)Cc1ccccn1)NCc1csc(-c2cccs2)n1` it was 2500 nM; in that of `CCc1cccc(CC)c1-n1c(SCC(=O)N2CC(=O)Nc3ccccc32)nnc1-c1cccnc1`, 25000 nM. On the same count and under the same terms, in the case of `COc1ccc(-c2cnc(C)o2)cc1S(=O)(=O)Nc1ccc(C)cc1C` it was 3200 nM; in that of `O=c1oc2ccccc2n1C1CCN(Cc2ccccc2-c2cccnc2)CC1`, 400 nM; in that of `O=C1CN(C(=O)c2cccc(Nc3ncc(-c4ccc5c(c4)OCO5)cn3)c2)CCN1`, 500 nM. In turn, `CCC1Oc2cc(S(=O)(=O)N(C)CC(=O)N3CCc4ccccc4C3)c(C)cc2NC1=O` (stereo not drawn) yielded an IC50 of 250 nM. This IC50 is about 2-fold lower than that of the compound before.

In turn, `C=CCN(Cc1cccs1)C(=O)CSc1nnc(-c2ccc3c(c2)OCO3)o1` had a concentration for half-maximal inhibition (IC50) of 500 nM. Turning to `Cc1cc(NC(=O)c2ccc([N+](=O)[O-])s2)ccc1Br`, the concentration for half-maximal inhibition (IC50) stood at 250 nM. Compared with the last compound, the IC50 is about 2-fold lower. The same measure, in the same setting: the figure for `Cn1nccc1NC(=O)Cn1ccc(-c2ccncc2)n1` is > 50000 nM; for `O=C(c1cc2cc(Cl)ccc2[nH]1)N1CCCCC1c1cccnc1` (stereo not drawn) it is 130 nM. Compound `CC(C(=O)Nc1ccccc1F)N(C)CC(=O)Nc1cccc2ccccc12` (stereo not drawn) had an IC50 of 320 nM. The same measure, in the same setting: in the case of `O=S(=O)(NCC(c1cccnc1)N1CCN(c2ccccc2F)CC1)c1ccc(F)cc1` (stereo not drawn) it was 200 nM; in that of `O=C(Nc1nccs1)c1ccccc1Cn1cc([N+](=O)[O-])cn1`, > 50000 nM.

In the case of `Nc1nccc(-c2csc(Nc3ccc(Cl)cc3)n2)n1`, the IC50 was > 50000 nM. Still for that read-out and setting: the figure for `O=C(Nc1nc(-c2ccccn2)cs1)N1C[C@H]2C[C@@]2(c2ccccc2)C1` is 250 nM; for `COc1ncc(-c2ccc3nccc(-c4ccncc4)c3c2)cc1NS(=O)(=O)C1CC1` it is 2000 nM. The same measure, in the same setting: the figure for `Cc1cc(NC(=O)CC2CCCCC2)n(-c2nc3c(c(=O)[nH]2)CCC3)n1` is 130 nM; for `Cc1nc2c(-c3nc(-c4ccc(N)cc4)n[nH]3)cccn2c1C` it is > 50000 nM; for `Nc1ncnc2c1ncn2[C@@H]1O[C@H](CO)C[C@H]1O` it is 1300 nM. As to `NS(=O)(=O)c1ccc(Nc2ncc3cccc(OC4CCNCC4)c3n2)cc1`, the IC50 came out at 20 nM.

For `Cn1c(CC(=O)NNC(=O)c2ccc3ccccc3n2)nc2ccccc21`, the IC50 was 6300 nM.

Compound `O=C(NCc1nnc2n1CCCCC2)c1ccc(-c2ccc(F)cc2)o1` returned an IC50 of 1000 nM. Compound `CC(C)(C)CC(=O)NCc1noc(COc2ccccc2)n1` displayed an IC50 of 2500 nM.

`O=C1NCCn2ccc(Nc3nc(NC4CCC(O)CC4)ncc3Cl)c21` (stereo not drawn) yielded an IC50 of 3200 nM. Regarding `O=c1cc(NCCCNCc2c[nH]c3ccc(Br)cc23)[nH]c2ccccc12`, the IC50 turned out to be 32000 nM. Compared with the last compound, the IC50 is about 10-fold higher.

Compound `COc1ccc(C2CC(c3ccccc3Cl)=NN2C(=O)CNC(=O)C2CCCC2)cc1` (stereo not drawn) showed an IC50 of 2000 nM. Compared with the last compound, the IC50 is about 16-fold lower. The same measure, in the same setting: in the case of `CNc1nc(C)nc(N2CCc3cc(C(=O)NCc4ccc(-c5ccn[nH]5)cc4Cl)ccc32)n1` it was > 50000 nM. The same measure, in the same setting: the figure for `O=C(Cn1cnc([N+](=O)[O-])n1)Nc1ccc(Cl)cc1C(=O)c1ccccc1` is 320 nM; for `CCS(=O)(=O)c1cccc(C(=O)Nc2nc(-c3ccccn3)cs2)c1` it is 1600 nM; for `O=S(=O)(c1ccccc1C(F)(F)F)N1CCN(Cc2ccc(-n3ccnc3)cc2)CC1` it is 200 nM. The same measure, in the same setting: in the case of `COc1ccc(C(=O)N2CCC(Nc3cccnc3)C2)c(OC)n1` (stereo not drawn) it was 790 nM; in that of `CN(C)c1ccc(-c2cc3nccnc3c(OC[C@H]3CCCNC3)n2)cn1`, 1600 nM; in that of `CC1CCCN(S(=O)(=O)c2ccc(C(=O)Nc3nc(-c4ccccn4)cs3)cc2)C1` (stereo not drawn), 250 nM.

`CC(C)S(=O)(=O)c1ccc(-c2cnc(N)c3cc(-c4ccnc(N)n4)ccc23)cc1` yielded an IC50 of 13000 nM. On the same count and under the same terms, in the case of `COCc1cc(Nc2ccc(Cl)cc2)nc(-c2ccccn2)n1` it was 2500 nM; in that of `Cc1ccc(Nc2nc(N)nc(CNC(c3nc4ccccc4[nH]3)C(C)C)n2)cc1` (stereo not drawn), 5000 nM.

The record behind these values is PubChem BioAssay AID1159565 (GlaxoSmithKline (GSK), 2015).
